“And” between values parts separate entries of the source, which are not always exact repeats. Equal values may be shown once. Read-outs that look alike come from different tables or passages of the source.
Assays:
BRD4(1) [1] = biological target: T1, BRD4(1) (Homo sapiens, UniProt O60885); assay: BRD4(1) biochemical alphascreen assay (disruption of BRD4(1) binding to acetylated biotin-histone 4 peptide); set-up: BRD4-BD1 (49–170, BPS Bio #31042) was stored at −80 °C; purchased BPS Bio 31042; conditions: for IC50: alpha screen, average, 9 concentrations in triplicate (n = 3), read-out: IC50 against BRD4(1)
Text: After searching multiple commercial providers for the top 108 compounds, Enamine LLC (http://www.enamine.net/) provided 24 compounds comprising 5 chemical scaffolds including substituted 2-pyrrolidinones, quinazolin-4-amines, thienopyrimidin-4-amines, and imidazolidinones (Supplementary Table 2). […] As illustrated, several compounds have confirmed activity against BRD4(1) and one compound, Z118332870 (2870), is active against BRD4 and EGFR kinase. Compounds that were not confirmed BRD4(1) actives were not tested in the EGFR assay because we were primarily interested in novel dual BRD4 and EGFR inhibitors. To evaluate small molecule BRD4 bromodomain binding, we utilized a biochemical alphascreen assay that measured disruption of BRD4(1) binding to pre-acetylated biotin-histone 4 peptide by proximity detection of the conjugated donor and acceptor beads via transient singlet oxygen. […] To validate results, a counter-screen assay (see Methods for details) was performed to ensure that compounds were not interacting with assay components other than recombinant BRD4(1) (Supplementary Figure 3).
The BRD4(1) alpha screen assay was performed with a pre-acetylated Biotin-Histone 4 Peptide [H4K5/8/12/16(Ac)] 1 – 21 (AnaSpec #64989-025, 0.25 mg). A 200 μM stock was made and stored at −80 °C. BRD4-BD1 (49–170, BPS Bio #31042) was stored at −80 °C at a concentration of 50 μM. All compounds used in assays were kept in a 10 mM stock at −80 °C, with I-BET151 being used as a control. The assay buffer contained 50 mM HEPES, 100 mM NaCl, and 0.1% BSA at a pH of 7.4, and was stored at 4 °C. 10% CHAPS (Sigma C3023) was added to the assay buffer before each experiment and was stored at room temperature.
Before use, assay buffer was equilibrated to room temperature and supplemented with 0.05% CHAPS. 3X His-BRD4-BD1 was diluted in assay buffer to 600 nM with a final concentration of 200 nM in a 12 μl reaction volume. 4 μl per well of 3X His-BRD4-BD1 was added to an OptiPlate-384 (Perkin Elmer #6007290) covered with Top Seal-A Film (Perkin Elmer #6005250) and pulsed at 900 × g. 3X BRD Inhibitors or DMSO vehicle was prepared in Assay Buffer starting at 300 μM and diluting 3X to 46 nM. 4 μl of buffer (positive control), 3X DMSO Vehicle, or 3X BRD Inhibitor (I-BET151 as control) were added to each well, sealed with Top Seal-A film and pulsed at 900 × g. The plate was then incubated at room temperature for 30 minutes. 3X Biotin-H4K4Ac was prepared by diluting stock in Assay Buffer to 600 nM, with a final concentration of 200 nM in a 12 μl reaction volume. 4 μl of Biotin-H4K4Ac was added per well, sealed and pulsed at 900 × g. The plate was then incubated at room temperature for another 30 minutes. AlphaLISA Nickel Chelate Acceptor Beads (Perkin Elmer #1547780, 5 mg/ml, 4 °C) and AlphaScreen Streptavidin Donor Beads (Perkin Elmer #6760002, 5 mg/ml, 4 °C) were prepared at 2.5X by diluting in Assay Buffer to 25 μg/ml with a final concentration of each bead equaling 10 μg/ml in a 20 μl reaction volume. 8 μl per well of Donor and Acceptor beads were added in the dark to each well, sealed, wrapped with foil to protect from light, and pulsed at 900 × g. The plate was then incubated at room temperature for 60 minutes and read on an EnVision instrument using Alpha Mode (680 excitiation/615 emission/read signal). Dose response curves were obtained and interpreted using GraphPad Prism software for curve fitting to obtain IC50 values. […]

EGFR (ERBB1) = EGFR (ERBB1) (Homo sapiens, UniProt P00533); assay: EGFR kinase activity enzyme assay (radioisotope filter binding, hotspot); format: biochemical
Method: A radioisotope filter binding method was used in the EGFR kinase hotspot assay, performed by the Reaction Biology Corporation, LLC. The base reaction buffer was composed of 20 mM HEPES (pH 7.5); 10 mM MgCl2, 1 mM EGTA, 0.02% Brij35, 0.02 mg/mL BSA, 0.1 mM Na3VO4, 2 mM DTT, and 1% DMSO. The substrate was freshly prepared using the base reaction buffer. Kinase was added into the substrate solution at a concentration of 10 μM and gently mixed. Compounds were then added into the kinase reaction mixture. At this point, the ^33P-ATP was added into the reaction mixture to initiate the reaction. The reaction was incubated for 120 minutes at room temperature. After completion, reactions were spotted onto P81 ion exchange paper (Whatman #3698-915). Filters were then washed extensively in 0.75% Phosphoric acid and a scintillation counter was used to quantify the amount of radioactivity on the filter.

ERBB2 = ERBB2 (Homo sapiens, UniProt P04626); assay: Kinase activity enzyme profiling, ERBB2; format: biochemical
ERBB4 = ERBB4 (Homo sapiens, UniProt Q15303); assay: Kinase activity enzyme profiling, ERBB4; format: biochemical
BRD4(1) [2] = biological target: T1, BRD4(1); assay: Differential scanning fluorimetry (DSF) with BRD4(1); format: binding; set-up: Bromodomain 1 (BRD4(1)) and Bromodomain 2 (BRD4(2))
Method: The inhibitory activity of compound Z118332870 (2870) against BRD4(1) was assessed by DSF using a StepOnePlus Real-Time PCR system (Applied Biosystems). Purified BRD4(1) (4 μM final concentration; 10 mM HEPES (pH 7.5), 100 mM NaCl, and 1 mM DTT) was assayed, in triplicates, in a 96-well plate. Compound was added to a final concentration of 100 μM and 2% DMSO. Protein Thermal Shift Dye (1:8000; Applied Biosystems) was used as the fluorescent probe and fluorescence was measured using the ROX Reporter channel (620 nm). Protein stability was investigated by programing the thermocycler to increase the temperature from 25 °C to 99 °C using 0.2 °C increments and 10 second incubations per increment. The inflection point of the transition curve/melting temperature (Tm) was calculated using the Boltzmann equation within the Protein Thermal Shift Software (v.1.1) (Applied Biosystems). The ΔTm was calculated by using DMSO control wells as a reference.

EGFR (ERBB1), sequence (P00533 25-1210): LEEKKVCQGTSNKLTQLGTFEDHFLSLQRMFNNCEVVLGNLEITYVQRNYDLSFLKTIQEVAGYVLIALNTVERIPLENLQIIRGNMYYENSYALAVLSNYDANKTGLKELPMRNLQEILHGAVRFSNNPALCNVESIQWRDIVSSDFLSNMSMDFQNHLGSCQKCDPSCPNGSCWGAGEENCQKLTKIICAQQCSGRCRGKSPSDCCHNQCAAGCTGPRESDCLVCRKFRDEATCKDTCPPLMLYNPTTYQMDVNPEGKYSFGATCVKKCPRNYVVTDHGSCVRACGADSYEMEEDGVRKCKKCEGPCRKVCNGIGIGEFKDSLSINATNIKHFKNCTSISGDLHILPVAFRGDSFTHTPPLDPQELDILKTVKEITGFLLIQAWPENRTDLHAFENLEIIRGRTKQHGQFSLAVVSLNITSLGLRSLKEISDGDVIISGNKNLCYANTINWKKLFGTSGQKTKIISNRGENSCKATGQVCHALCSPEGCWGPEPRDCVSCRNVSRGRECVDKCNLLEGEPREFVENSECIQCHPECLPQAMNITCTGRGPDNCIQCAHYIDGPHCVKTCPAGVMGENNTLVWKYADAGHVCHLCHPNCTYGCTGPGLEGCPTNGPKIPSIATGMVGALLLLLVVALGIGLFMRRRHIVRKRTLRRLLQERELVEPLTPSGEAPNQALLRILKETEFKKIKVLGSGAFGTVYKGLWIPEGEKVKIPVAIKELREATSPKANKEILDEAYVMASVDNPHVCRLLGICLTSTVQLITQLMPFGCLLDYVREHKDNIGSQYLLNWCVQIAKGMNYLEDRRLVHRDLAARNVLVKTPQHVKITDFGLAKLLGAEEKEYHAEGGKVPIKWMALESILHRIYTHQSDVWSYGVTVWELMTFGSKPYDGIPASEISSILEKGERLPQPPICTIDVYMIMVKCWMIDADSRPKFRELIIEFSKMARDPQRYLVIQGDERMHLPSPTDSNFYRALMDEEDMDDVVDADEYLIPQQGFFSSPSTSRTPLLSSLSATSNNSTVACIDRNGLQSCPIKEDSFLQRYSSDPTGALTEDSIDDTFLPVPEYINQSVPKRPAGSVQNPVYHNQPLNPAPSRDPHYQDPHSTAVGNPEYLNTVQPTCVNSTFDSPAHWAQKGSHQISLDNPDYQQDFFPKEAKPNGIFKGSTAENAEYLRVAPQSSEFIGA
ERBB4, sequence (Q15303 26-1308): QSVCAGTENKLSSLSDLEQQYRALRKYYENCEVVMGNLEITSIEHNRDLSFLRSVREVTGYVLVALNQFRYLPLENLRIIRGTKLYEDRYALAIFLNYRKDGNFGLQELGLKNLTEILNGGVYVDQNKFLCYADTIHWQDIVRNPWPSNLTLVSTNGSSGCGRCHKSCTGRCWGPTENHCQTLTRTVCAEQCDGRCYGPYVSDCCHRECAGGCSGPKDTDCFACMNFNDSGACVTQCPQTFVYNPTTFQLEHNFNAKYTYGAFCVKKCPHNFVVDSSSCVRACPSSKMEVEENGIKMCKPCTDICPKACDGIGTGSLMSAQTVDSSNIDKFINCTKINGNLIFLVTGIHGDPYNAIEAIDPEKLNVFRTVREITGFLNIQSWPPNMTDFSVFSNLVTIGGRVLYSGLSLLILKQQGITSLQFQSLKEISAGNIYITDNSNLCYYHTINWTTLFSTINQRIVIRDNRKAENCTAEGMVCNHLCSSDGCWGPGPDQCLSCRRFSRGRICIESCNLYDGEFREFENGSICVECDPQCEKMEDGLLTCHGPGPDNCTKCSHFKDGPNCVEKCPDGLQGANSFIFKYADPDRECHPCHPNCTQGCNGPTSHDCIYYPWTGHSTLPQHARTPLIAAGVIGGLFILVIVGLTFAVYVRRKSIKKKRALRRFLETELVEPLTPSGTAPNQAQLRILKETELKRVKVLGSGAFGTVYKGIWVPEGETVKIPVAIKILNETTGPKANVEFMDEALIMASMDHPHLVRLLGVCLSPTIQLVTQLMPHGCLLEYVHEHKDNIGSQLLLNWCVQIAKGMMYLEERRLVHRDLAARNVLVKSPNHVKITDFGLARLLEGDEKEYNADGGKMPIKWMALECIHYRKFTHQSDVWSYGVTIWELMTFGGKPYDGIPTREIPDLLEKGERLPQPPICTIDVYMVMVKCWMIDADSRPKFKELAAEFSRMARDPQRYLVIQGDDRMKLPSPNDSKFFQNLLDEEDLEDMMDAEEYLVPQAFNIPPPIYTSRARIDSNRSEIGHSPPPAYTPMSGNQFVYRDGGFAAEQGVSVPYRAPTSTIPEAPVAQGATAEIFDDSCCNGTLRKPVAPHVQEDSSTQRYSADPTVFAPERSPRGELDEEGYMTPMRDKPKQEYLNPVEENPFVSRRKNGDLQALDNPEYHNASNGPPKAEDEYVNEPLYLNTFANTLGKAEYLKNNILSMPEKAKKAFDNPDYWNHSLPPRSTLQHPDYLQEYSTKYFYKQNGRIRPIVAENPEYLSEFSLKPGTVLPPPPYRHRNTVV
ERBB2, sequence (P04626 23-1255): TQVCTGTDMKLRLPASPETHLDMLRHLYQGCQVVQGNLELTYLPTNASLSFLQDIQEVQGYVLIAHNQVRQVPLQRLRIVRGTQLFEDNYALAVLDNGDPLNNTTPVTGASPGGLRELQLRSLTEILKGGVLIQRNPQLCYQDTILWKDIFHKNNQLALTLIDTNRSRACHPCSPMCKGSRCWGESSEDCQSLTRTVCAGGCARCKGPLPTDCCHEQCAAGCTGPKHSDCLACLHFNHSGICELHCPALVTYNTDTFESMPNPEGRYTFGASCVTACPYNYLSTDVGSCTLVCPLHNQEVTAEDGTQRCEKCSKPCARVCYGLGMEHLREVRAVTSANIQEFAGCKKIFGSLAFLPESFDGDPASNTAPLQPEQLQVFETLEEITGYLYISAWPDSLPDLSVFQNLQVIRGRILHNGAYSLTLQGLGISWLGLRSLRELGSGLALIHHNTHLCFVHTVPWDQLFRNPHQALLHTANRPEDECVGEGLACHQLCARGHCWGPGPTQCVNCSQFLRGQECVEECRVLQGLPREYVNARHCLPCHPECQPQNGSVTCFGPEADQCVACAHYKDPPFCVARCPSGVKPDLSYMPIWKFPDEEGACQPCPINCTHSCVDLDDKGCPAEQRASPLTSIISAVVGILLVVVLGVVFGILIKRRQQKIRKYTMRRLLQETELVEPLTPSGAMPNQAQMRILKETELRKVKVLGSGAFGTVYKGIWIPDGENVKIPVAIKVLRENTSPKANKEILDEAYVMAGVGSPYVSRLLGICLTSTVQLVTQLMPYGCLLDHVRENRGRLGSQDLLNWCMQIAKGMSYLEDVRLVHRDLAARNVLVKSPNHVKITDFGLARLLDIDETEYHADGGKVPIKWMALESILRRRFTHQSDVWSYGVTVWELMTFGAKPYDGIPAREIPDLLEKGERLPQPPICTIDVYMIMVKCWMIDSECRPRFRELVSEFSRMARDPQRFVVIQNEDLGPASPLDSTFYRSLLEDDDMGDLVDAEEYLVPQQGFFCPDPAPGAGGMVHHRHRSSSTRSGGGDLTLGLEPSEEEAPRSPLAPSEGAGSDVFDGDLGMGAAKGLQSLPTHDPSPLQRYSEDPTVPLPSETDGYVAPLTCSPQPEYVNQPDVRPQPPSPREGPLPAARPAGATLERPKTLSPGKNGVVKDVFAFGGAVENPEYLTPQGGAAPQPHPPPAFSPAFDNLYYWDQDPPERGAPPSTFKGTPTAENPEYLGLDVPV

| activity in BRD4(1) alphascreen assay (in words) (BRD4(1) [1]) | SMILES | IC50 (BRD4(1) [1]) | IC50 (EGFR (ERBB1); kinase enzyme activity assay, read-out: IC50 against EGFR) [µM] | IC50 (EGFR (ERBB1); radioisotope filter binding assay, substrate concentration 10 μM, n = 3, read-out: IC50 against EGFR kinase) [µM] | selectivity for EGFR over ERBB2 (ERBB2; EGFR vs ERBB2 IC50) | IC50 (ERBB2; kinase activity enzyme profiling, read-out: IC50 against ERBB2) [µM] | selectivity for EGFR over ERBB4 (ERBB4; EGFR vs ERBB4 IC50) [fold] | IC50 (ERBB4; kinase activity enzyme profiling, read-out: IC50 against ERBB4) [µM] | ΔTm at 100 µM (BRD4(1) [2]; DSF, compound 100 μM, BRD4(1) 4 μM, relative to DMSO) [°C] | IC50 (BRD4(1) [2]; corresponds to ΔTm based on the standard curve, read-out: predicted IC50 from DSF standard curve) [µM] |
| --- | --- | --- | --- | --- | --- | --- | --- | --- | --- | --- |
| Confirmed active | c1nc(NCCCN2CCOCC2)c2c3c(sc2n1)CCC3 [compound 0012] | 17 µM | – | – | – | – | – | – | – | – |
| Confirmed active | COc1ccc(Br)cc1S(=O)(=O)Nc1cccc(N2CCCC2=O)c1 [compound 8302] | – | – | – | – | – | – | – | – | – |

| SMILES | activity in BRD4(1) alphascreen assay (in words) (BRD4(1) [1]) | IC50 (BRD4(1) [1]) | IC50 (EGFR (ERBB1); kinase enzyme activity assay, read-out: IC50 against EGFR) [µM] | IC50 (EGFR (ERBB1); radioisotope filter binding assay, substrate concentration 10 μM, n = 3, read-out: IC50 against EGFR kinase) [µM] | selectivity for EGFR over ERBB2 (ERBB2; EGFR vs ERBB2 IC50) | IC50 (ERBB2; kinase activity enzyme profiling, read-out: IC50 against ERBB2) [µM] | selectivity for EGFR over ERBB4 (ERBB4; EGFR vs ERBB4 IC50) [fold] | IC50 (ERBB4; kinase activity enzyme profiling, read-out: IC50 against ERBB4) [µM] | ΔTm at 100 µM (BRD4(1) [2]; DSF, compound 100 μM, BRD4(1) 4 μM, relative to DMSO) [°C] | IC50 (BRD4(1) [2]; corresponds to ΔTm based on the standard curve, read-out: predicted IC50 from DSF standard curve) [µM] |
| --- | --- | --- | --- | --- | --- | --- | --- | --- | --- | --- |
| COc1cc2ncnc(NCCOc3ccccc3F)c2cc1OC [compound 2870] | Confirmed active | 9 µM and 9.02 µM | 0.0442 | 0.044 | about 200 fold | 8.73 | 500 | 24.2 | 1.15 | 9.1 |
